Assay results as given in patent EP2565188A1, “Novel photoactivatable paclitaxel derivatives and uses thereof, in particular in cellbiology and cancer treatment” (Max-Planck-Gesellschaft zur Förderung der Wissenschaften …, priority 2011, dated 2013).

Legend:
[1] = Solubility test of 10 µM solutions in 1:1000 DMSO:PIPES buffer; type: physicochemical
Procedure: 10 mM solutions of PTX derivatives in DMSO were prepared. All substances were soluble in DMSO at this concentration. 10 µM solutions of were obtained by 1:1000 dilution of the stock solution into 80 mM PIPES buffer pH 6.8, containing 2 mM MgCl2 and 1 mM EGTA. Table A: solubility test of 10 µM solutions of PTX derivatives in 1:1000 DMSO:PIPES buffer

[2] = Photocleavage study: irradiation at 360 nm, composition by HPLC; type: physicochemical; conditions: 1 mM, 5% water in acetonitril, share of the labelled species
Procedure: The photolysis of the compounds 2'-Nvoc-PTX and 2',7-bisNvoc-PTX was followed by UV and HPLC analysis of the correspondent solutions after exposure to light at λmax = 360 nm (2.7 mW/cm^2).
3 ml of a 1 mM solution of caged PTX in acetonitrile containing 5% water was placed into a quartz cuvette and was exposed at 360 nm for different irradiation times. Aliquots of 50 µl were taken after various irradiation times, and each aliquot was splitted in two parts. 20 µl were diluted to 400 µl to obtain 50 µM solution for UV-Vis characterisation. The 30 µl left from each aliquot were injected into the HPLC (20 µl loop, analytical column) in order to estimate the composition of the irradiated mixture.
Photocleavage of compound 2',7-bisNvoc-PTX was expected to yield the mono-substituted species 2'-Nvoc-PTX and 7-Nvoc-PTX as intermediates that can be further photolyzed to afford free PTX. In fact, HPLC analysis (Fig. 1) confirmed the presence of 2'-Nvoc-PTX (retention time, r.t.= 16.7 min) and 7-Nvoc-PTX (r.t. = 18.2 min) together with the starting compound 2',7-bisNvoc-PTX (r.t. = 21.3 min) and the fully deprotected PTX (r.t. = 11.1 min). The ratio of these compounds within the composition of the irradiated mixture changes with the exposure dose. Fig. 2 and Table B below show the compositional evolution of the mixture with increasing irradiation time as obtained by HPLC analysis. […] However, the influence of other structural factors in the photolytic mechanism cannot be ruled out. Compound 7-Nvoc-PTX could also be isolated from the irradiated mixture in milligram scale. Table B. Molar composition of a solution of 2',7-bisNvoc-PTX (1 mM, 5% water in acetonitril) after different irradiation times, as determined by analysis of HPLC graphs (Fig. 2)

HeLa cells [3] = type: cell-based, Human; conditions: 48 h
Procedure: (§1) Human cervix carcinoma cells, HeLa cells (#ACC57, DMSZ, Germany), were cultured in DMEM medium (Invitrogen) supplemented with 10% fetal calf serum (FCS, Gibco) in a humidified incubator at 37°C/5%CO2.
In order to evaluate the bioactivity of the caged PCT derivatives, their cytotoxicity was tested in vitro using HeLa cells. Cells were incubated with PTX and caged PTX derivatives at concentrations between 0.01 and 10 µM.
The effect of PTX and derivatives on cell vitality was measured in a combined assay determining cytotoxicity and cell number by propidium iodide (PI) staining. HeLa cells (2x10^4 cells/well) were diluted in cell culture medium (DMEM, 10 % FCS) and seeded in 96 well-plates (black plate, clear bottom, corning, Amsterdam, Netherlands). The culture medium was replaced after ~16h by compound supplemented medium (200 µL, DMEM, 10 % FCS, 1 % DMSO) or medium without compound (DMEM, 10 % FCS, 1 % DMSO) as a specific control. After 48 h, dead cells with permeable cell membranes were stained with PI ([…], 15 min at 37°C, 5% CO2) and the PI fluorescence intensity was measured with a fluorescence plate reader (excitation wavelength 530 nm, emission wavelength 620 nm, Tecan Infinite M1000, Austria). Subsequently, the cells were lysed with 2% Triton X-100 diluted in DMEM (0.3% Triton X-100 per well, 15 min at 37°C, 5% CO2 and the PI fluorescence was measured again. The vitality of the cells was calculated by the ratio of dead cells (DC) before lyses and the total cell number (TCN) after lyses (1-DC/TCN).

HeLa cells [4] = test: Live cell imaging of the microtubule network (Tubulin Tracker / DRAQ5, CLSM); type: cell-based, Human; conditions: 24 h
Procedure: as §1
In order to visualize the influence of the PTX derivatives in the microtubule network of the cell, a live cell microscopy analysis of HeLa cells after incubation with 10 µM PTX derivatives for 24 hours was performed.
Specifically, microtubules and nuclei of HeLa cells were fluorescently stained with Tubulin Tracker (Invitrogen) and DRAQ5 (biostatus, United Kingdom) respectively, and imaged by a Leica TCS SP5 confocal laser scanning microscopy (CLSM). 30x10^4 HeLa cells were seeded in 8-well chamber slides (Lab-Tek, nunc, Germany) and the culture medium was replaced after ~16 h by compound supplemented medium (250 µL, DMEM, 10% FCS, 1% DMSO) or medium without compound (DMEM, 10% FCS, 1% DMSO) as a specific control. After 24h, cells were carefully washed with Hank's Buffered Saline Solution (HBSS, with Ca^2+ and Mg^2+, Invitrogen) and the buffer was replaced by a staining solution containing 250 nM Tubulin Tracker (Invitrogen) and 5 µM DRAQ5. The cells were stained for 30 min at 37°C/5% CO2 in a humidified incubator. The staining solution was replaced by HBSS and the cells were directly imaged with a 100x plan apochromat (1.4 NA) oil immersion objective on the CLSM system equipped with a CO2 incubator and a temperature control. Tubulin Tracker was excited with an argon laser (488 nm) and the emission was detected by 500-580 nm. DRAQ5 was excited with a HeNe laser (633 nm) and the emission was detected by 650-730 nm. The images have a voxel height and width of 90 nm. Bright field images grabbed with an Olympus IX-70 inverted microscope with a 20x phase contrast objective. Image processing performed with Leica LAS AF lite and ImageJ (Fiji).

## CC(=O)O[C@H]1C(=O)[C@@]2(C)[C@H]([C@H](OC(=O)c3ccccc3)[C@]3(O)C[C@H](OC(=O)[C@H](O)[C@@H](NC(=O)c4ccccc4)c4ccccc4)C(C)=C1C3(C)C)[C@]1(OC(C)=O)CO[C@@H]1C[C@@H]2O [PTX, Paclitaxel]
[1]; 10 µM in 1:1000 DMSO:PIPES buffer (80 mM, pH 6.8), time 1 hr
  solubility test (appearance of solution): clear solution
[1]; 10 µM in 1:1000 DMSO:PIPES buffer (80 mM, pH 6.8), time 8 hrs
  solubility test (appearance of solution): clear solution
[1]; 10 µM in 1:1000 DMSO:PIPES buffer (80 mM, pH 6.8), time 24 hrs
  solubility test (appearance of solution): Suspension
[1]; 10 µM in 1:1000 DMSO:PIPES buffer (80 mM, pH 6.8), time 30 hrs
  solubility test (appearance of solution): white precipitate
[1]; 10 µM in 1:1000 DMSO:PIPES buffer (80 mM, pH 6.8, 2 mM MgCl2, 1 mM EGTA), time 5 min
  solubility test (appearance of solution): clear solution
[2]; 360 nm (2.7 mW/cm^2), irradiation time 0 min
  Molar composition of a solution of 2',7-bisNvoc-PTX after irradiation: 0%
[2]; 360 nm, irradiation time 60 min
  Molar composition of a solution of 2',7-bisNvoc-PTX after irradiation: 0%
[2]; 360 nm, irradiation time 270 min
  Molar composition of a solution of 2',7-bisNvoc-PTX after irradiation: 1.7%
[2]; 360 nm, irradiation time 450 min
  Molar composition of a solution of 2',7-bisNvoc-PTX after irradiation: 6.0%
[2]; 360 nm, irradiation time 570 min
  Molar composition of a solution of 2',7-bisNvoc-PTX after irradiation: 10.6%
[2]; 360 nm, irradiation time 735 min
  Molar composition of a solution of 2',7-bisNvoc-PTX after irradiation: 18.5%
[2]; 360 nm, irradiation time 820 min
  Molar composition of a solution of 2',7-bisNvoc-PTX after irradiation: 21.2%
[2]; 360 nm, irradiation time 1585 min
  Molar composition of a solution of 2',7-bisNvoc-PTX after irradiation: 60.5%
HeLa cells [3]
  concentration at which cell vitality is significantly reduced: 0.1 µM
HeLa cells [4]; 10 µM
  cell morphology / mitosis in microscopy images: mitosis of HeLa cells was blocked
  microtubule staining by Tubulin Tracker (fluorescence CLSM): absence of the mitotic spindle stained with Tubulin Tracker
HeLa cells [4]; patterns similar between the compounds (Fig. 6)
  concentration triggering the multiple nuclei pattern: 2 nM
